Source: patent US20210169993A1, “TREATMENT OF A SUBTYPE OF ASD” (STALICLA SA, priority 2017, published 2021)

System: ASD phenotype 1 lymphoblastoid cell lines
Assay: NADH production in Phenotype Mammalian MicroArrays (PM-M, Biolog), ASD phenotype 1 cells
Type: cell-based, human
Details: FIG. 1 (AUC) and Table 1 (endpoint absorbance)
Method: From all subjects, blood samples were collected and lymphoblastoid cell lines generated. Briefly, tubes containing anticoagulant citrate dextrose (ACD) were used to collect blood samples via venipuncture, in order to ensure that the blood cells remained metabolically active. The tubes were kept at room temperature and processed within 24 hours.
Cell lines were obtained by immortalization of lymphocytes from blood samples using Epstein-Barr virus.
Energy production of cells was measured using commercially available Phenotype Mammalian MicroArrays (PM-Ms, Biolog, Hayward, Calif., USA).
The compound in each well was designed to be used by the cells, either as the sole energy source or as the metabolic effector influencing the utilization of an energy source (α-D-glucose) added in the cell suspension. […] Before plating, cell viability and number were assessed utilizing a BioRad cell counter and a trypan blue dye. The concentration of live cells required for plating was 4×10^5 cells/mL, corresponding to 20,000 cells per well in a volume of 50 μL. […] Cells were incubated for 48 h at 37° C. in 5% CO2, using the modified Biolog IF-M1 medium.
The Biolog IF-M1 medium was modified for plates PM-M1 to M4 by adding the following to 100 mL of Biolog IF-M1: 1.1 mL of 100× penicillin/streptomycin solution, 0.16 mL of 200 mM glutamine (final concentration 0.3 mM), and 5.3 mL of Fetal Bovine Serum (FBS, final concentration 5%). For plates PM-M5 to M8, 5.5 mM α-D-glucose will be added in place of FBS.
During the 48-hour incubation, the only energy source the cells had was the chemical in the well. After this first incubation, Biolog Redox Dye Mix MB was added (10 μL/well) and the plates were incubated under the same conditions for an additional 24 hours. As the cells metabolized the energy source, tetrazolium dye in the media was reduced, producing a purple color according to the amount of NADH generated.
For the last 24 hours of the experiment, the plates were incubated in the Omnilog system, which collects optical density readings every 15 minutes, generating 96 data-points for each well. The system also elaborated the kinetic curve for the metabolic reaction in each well and extrapolated parameters such as slope, highest point, endpoint, area under the curve (AUC), and lag.
At the end of the 24-hour incubation, the plates were analyzed utilizing a microplate reader with readings at 590 and 750 nm. The first value (A590) indicated the highest absorbance peak of the redox dye and the second value (A750) gave a measure of the background noise. The relative absorbance (A590-750) was calculated per well.

IGF-I: insulin-like growth factor 1
production of NADH in ASD phenotype 1 cells compared to TDs and non-phenotype 1 cells: no significant differences

hGH (Somatotropin): growth factor that selectively targets PI3K-Akt-mTOR by binding the receptor tyrosine kinase
production of NADH in ASD phenotype 1 cells compared to TDs and non-phenotype 1 cells: significantly reduced

FGF-1(aFGF): growth factor that selectively targets PI3K-Akt-mTOR by binding the receptor tyrosine kinase
production of NADH in ASD phenotype 1 cells compared to TDs and non-phenotype 1 cells: significantly reduced

IL-6: Th1 cytokine
production of NADH in ASD phenotype 1 cells compared to TDs and non-phenotype 1 cells: significantly lower

IL-1beta: Th1 cytokine
production of NADH in ASD phenotype 1 cells compared to TDs and non-phenotype 1 cells: significantly lower

PDGF-AB: platelet-derived growth factor AB
production of NADH in ASD phenotype 1 cells compared to TDs and non-phenotype 1 cells: no significant differences
